Reference: patent US5532228A, “Side-chain homologous vitamin D derivatives, process for their production, pharmaceutical preparations containing these derivatives and their use as pharmaceutical agents” (Schering Aktiengesellschaft, priority 1990, dated 1996)
Where two headings read alike, the source gives them in different places.

Assays:
[1] = system: Keratinocytes of newborn mice; assay: antiproliferative test: 3H-thymidine incorporation in DNA of keratinocytes; type: cell-based, mouse (neonatal NMRI mice); conditions: mouse keratinocytes, 24 hours with test substance in serum-free medium at 32.5° C., 4 hours 3H-methylthymidine, read-out: IC50 of inhibition of 3H-thymidine incorporation in DNA
Method: Keratinocytes of newborn mice are prepared and cultivated in a modification of the method of Yuspa, S. and Harris, C.
Neonatal NMRI mice of both sexes are killed by decapitation, the skin is removed, washed in an antibiotic-antimycotic solution and, with the dermal side facing down, incubated overnight at 4° C. in dispase II solution (1.2 U/ml in tissue culture medium M199 +25 mmol/l HEPES+15% fetal calf serum (FCS)+50 U/ml of penicillin/streptomycin (P/S) (preparation medium, PM). The epidermis is removed and a single-cell suspension is produced by trypsinization. After centrifuging, the cell sediment is resuspended, the number of living, small, round cells is determined after trypan blue staining and the cells are sown in a density of 4×10^5 cells/cm^2 in Primaria 24-hole plates in tissue culture medium (M199+15% FCS+50 U/ml of P/S). […] Then, 0.4 microcuries/50 microliters of ^3 H-methylthymidine (40 Ci/mmol) is added. After 4 hours, the medium is suctioned off and the reaction is ended by adding 500 microliters of ice-cold 10% trichloroacetic acid (TCA). The cells are washed with TCA and PBS, lysed by incubation in a proteinase K-solution (10 mmol/l of tris-HCl, 10 mmol/l of EDTA, 10 mmol/l of NaCl, 0.2% triton-X 100, pH 8.0, 50 micrograms/ml of […]) and the lysate is clarified by centrifuging. In the supernatant fluid, the radioactivity is determined by scintillation photometry and, after specific staining of the DNA with diamidinophenylindole (DAPI), the DNA concentration is determined by fluorescence photometry.

[2] = system: HL 60 cells (human leukemia cells, promyelocytic cell line); assay: HL 60 differentiation induction into macrophages (NBT reduction to formazan); type: cell-based; conditions: for EC50: Homo sapiens, HL-60, 96 hours incubation, NBT-TPA, formazan at 650 nm, read-out: ED50 of differentiation induction of HL 60 cells into macrophages (formazan formed); for differentiation-stimulating effect compared with calcitriol: HL 60 cells, versus calcitriol
Method: To quantify the differentiation-stimulating effect of calcitriol analogs, the test indicated below was performed:
HL 60 cells are cultivated in tissue culture medium (RPM1--10% fetal calf serum) at 37° C. in an atmosphere of 5% CO2 in air.
The test substances are-dissolved in ethanol and diluted with tissue culture medium without phenol red to the desired concentration. The dilution stages are mixed with the cell suspension in a ratio of 1:10 and 100 microliters each of this cell suspension mixed with substance is pipetted into an indentation of a 96-hole plate. As a control, a cell suspension is mixed analogously with the solvent.
After incubation for 96 hours at 37° C. in 5% CO2 in air, 100 microliters of an NBT-TPA solution (nitro blue tetrazolium (NBT), final concentration in the batch 1 mg/ml, tetradecanoyl-phorbol myristate-13-acetate (TPA), final concentration in the batch 2×10^-7 mol/l) is pipetted into each indentation of the 96-hole plate into the cell suspension.
By incubation for 2 hours at 37° C. and 5% CO2 in air, the NBT is reduced to insoluble formazan because of the intracellular oxygen radical release, stimulated by TPA, in the cells differentiated into macrophages.
To end the reaction, the indentations of the 96-hole plate are drained and the adhering cells are fixed by adding methanol and dried after fixation.
To dissolve the intracellular formazan crystals formed, 100 microliters of potassium hydroxide (2 val/l) and 100 microliters of dimethyl sulfoxide are pipetted into each indentation and are exposed to ultrasonic waves for 1 minute. The concentration of formazan is measured by spectrophotometry at 650 nm.
The concentration of formazan formed is regarded as a measurement for the differentiation induction of the HL 60 cells into macrophages. The relative effectiveness of the test substance results from the quotient of ED50 test substance/ED50 calcitriol.

| EC50 [2] [nM] | SMILES | IC50 [1] [nM] | IC50 ([1]; Keratinocyte) [nM] | differentiation-stimulating effect compared with calcitriol [2] |
| --- | --- | --- | --- | --- |
|  | C=C1/C(=C\C=C2/CCC[C@]3(C)[C@@H]([C@H](C)C/C=C/C(O)CC(C)C)CC[C@@H]23)C[C@@H](O)C[C@@H]1O (single isomer, unassigned) [compound A] | 10 |  |  |
|  | C=C1/C(=C\C=C2/CCC[C@]3(C)[C@@H]([C@H](C)C/C=C/C(O)CC(C)C)CC[C@@H]23)C[C@@H](O)C[C@@H]1O (single isomer, unassigned) [compound B] | 3.2 |  |  |
| 2.2 | C=C1/C(=C\C=C2/CCC[C@]3(C)[C@@H]([C@H](C)C/C=C/[C@H](O)CC4CC4)CC[C@@H]23)C[C@@H](O)C[C@@H]1O [compound C, 26,27-cyclo-24a,24b-dihomo-9,10-secocholesta-5Z,7E,10(19),23E-tetraene-1(S),3(R),24a(R)-triol] |  |  | practically do not differ |
| 2.5 | C=C1/C(=C\C=C2/CCC[C@]3(C)[C@@H]([C@H](C)C/C=C/[C@@H](O)CC4CC4)CC[C@@H]23)C[C@@H](O)C[C@@H]1O [compound D, 26,27-cyclo-24a,24b-dihomo-9,10-secocholesta-5Z,7E,10(19),23E-tetraene-1(S),3(R),24a(S)-triol] |  |  | practically do not differ |

| SMILES | EC50 [2] [nM] | IC50 [1] [nM] | IC50 ([1]; Keratinocyte) [nM] | differentiation-stimulating effect compared with calcitriol [2] |
| --- | --- | --- | --- | --- |
| C=C1/C(=C\C=C2/CCC[C@]3(C)[C@@H]([C@H](C)CCCC(C)(C)O)CC[C@@H]23)C[C@@H](O)C[C@@H]1O [calcitriol, lalpha,25-dihydroxycholecalciferol, reference compound] | 1.8 |  | 2 |  |
